Test results as given in patent US11498949B2, “System and method for high-yield transient expression in mammalian cells” (LIFE TECHNLOLOGIES CORPORATION, priority 2012, dated 2022).

Test system: hIgG expression
Assay: Expression enhancers in the transient transfection system, hIgG yield
Format: cell-based
Details: enhancer added alone to transient transfection; vs. control with neither Enhancer 1 nor Enhancer 2
Excerpt: Components were formulated into 2 stable Enhancer solutions.

With `CCCC(CCC)C(=O)O` [Enhancer 1, valproic acid] the “effect on hIgG expression” value was “doubles hIgG expression”.

With `CCC(=O)[O-].[Na+]` [Enhancer 2, sodium propionate] the “effect on hIgG expression” value was “no strong effect alone”.
